Reference: article PMC3671888 (Journal of medicinal chemistry, 2012)

Target: T1, recombinant human sGC (soluble guanylyl cyclase), α1 and β1 subunits (Homo sapiens, UniProt Q02108+Q02153)
T1 sequence (Q02108 1-690): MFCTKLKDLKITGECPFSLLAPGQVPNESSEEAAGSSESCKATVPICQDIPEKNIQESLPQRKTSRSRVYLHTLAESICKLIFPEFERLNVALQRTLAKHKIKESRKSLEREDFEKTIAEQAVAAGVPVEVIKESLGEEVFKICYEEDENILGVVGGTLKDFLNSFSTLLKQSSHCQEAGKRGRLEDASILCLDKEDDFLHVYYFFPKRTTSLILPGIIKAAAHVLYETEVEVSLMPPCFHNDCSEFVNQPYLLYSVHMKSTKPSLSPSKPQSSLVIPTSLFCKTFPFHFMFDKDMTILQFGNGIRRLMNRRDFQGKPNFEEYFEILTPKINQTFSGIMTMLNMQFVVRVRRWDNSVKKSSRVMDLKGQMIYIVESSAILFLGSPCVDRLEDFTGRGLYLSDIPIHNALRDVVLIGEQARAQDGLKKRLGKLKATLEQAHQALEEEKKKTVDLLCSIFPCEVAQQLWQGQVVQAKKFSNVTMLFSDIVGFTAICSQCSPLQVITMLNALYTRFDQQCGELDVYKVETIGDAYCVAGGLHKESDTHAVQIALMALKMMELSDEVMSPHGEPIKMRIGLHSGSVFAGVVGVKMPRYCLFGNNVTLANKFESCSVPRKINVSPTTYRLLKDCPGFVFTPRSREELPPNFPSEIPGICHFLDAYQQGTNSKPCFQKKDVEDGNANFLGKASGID
T1 sequence (Q02153 1-619): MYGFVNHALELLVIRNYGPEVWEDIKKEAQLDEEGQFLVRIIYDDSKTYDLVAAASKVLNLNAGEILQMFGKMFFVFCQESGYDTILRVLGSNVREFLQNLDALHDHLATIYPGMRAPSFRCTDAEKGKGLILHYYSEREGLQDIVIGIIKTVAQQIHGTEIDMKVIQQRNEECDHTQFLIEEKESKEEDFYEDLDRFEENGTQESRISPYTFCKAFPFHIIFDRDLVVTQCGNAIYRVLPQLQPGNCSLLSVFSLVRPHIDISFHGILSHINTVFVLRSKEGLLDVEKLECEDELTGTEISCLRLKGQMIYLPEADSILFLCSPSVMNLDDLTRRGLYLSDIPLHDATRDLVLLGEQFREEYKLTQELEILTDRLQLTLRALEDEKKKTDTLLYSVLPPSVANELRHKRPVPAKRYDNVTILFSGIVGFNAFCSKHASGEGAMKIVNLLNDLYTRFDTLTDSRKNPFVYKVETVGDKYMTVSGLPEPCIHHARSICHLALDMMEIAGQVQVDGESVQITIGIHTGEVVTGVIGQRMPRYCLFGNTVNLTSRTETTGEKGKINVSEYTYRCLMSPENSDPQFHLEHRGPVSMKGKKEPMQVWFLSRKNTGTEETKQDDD
Assay: [alpha-32P]GTP to […]cGMP conversion assay
Format: biochemical
Settings: read-out: EC50 [μM] ^b; activation; preincubation with compound at 25 °C

Work on C#N.C#N.C/C1=C2/NC([C@H](CC(N)=O)[C@@]2(C)CCC(=O)NCC(C)O)[C@]2(C)N=C(/C(C)=C3N=C(/C=C4N=C1[C@@H](CCC(N)=O)C\4(C)C)[C@@H](CCC(N)=O)[C@]\3(C)CC(N)=O)[C@@H](CCC(N)=O)[C@]2(C)CC(N)=O.[Co] (stereo partly shown) [compound 1, dicyanocobinamide] yielded an EC50 of 34.2 µM.
